Experiments:
[1] = test system: HT29: human colon cancer cell line; experiment: Proliferation IC50 assay, oxic/hypoxic, HT29; assay type: cell-based; conditions: for IC50: Homo sapiens, HT-29, 4 h exposure under aerobic conditions; for IC50 / HCR (hypoxic cytotoxicity ratio) HT29: Table 3; for HCR (hypoxic cytotoxicity ratio) HT29: IC50(aerobic)/IC10(hypoxic)
[2] = One-electron reduction potential E(1) by pulse radiolysis; assay type: physicochemical; conditions: determined by pulse radiolysis
[3] = test system: SKOV3: human ovarian carcinoma cell line; experiment: Proliferation IC50 assay, oxic/hypoxic, SKOV3; assay type: cell-based; conditions: Table 3; for IC50: Homo sapiens, SK-OV-3, 4 h exposure under aerobic conditions; for HCR (hypoxic cytotoxicity ratio) SKOV3: IC50(aerobic)/IC10(hypoxic)
[4] = Plasma pharmacokinetics after intravenous 36 in mice (LC/MS/MS); assay type: in vivo, CD-1 mice (nu/+ heterozygotes); conditions: CD-1 (nu/+ heterozygotes), mouse
Method: The compounds were assayed in plasma, following precipitation of proteins with methanol, using an LC/MS/MS (triple quadrupole mass spectrometer).

HT29 clonogens = experiment: Clonogenic assay (C10), oxic/hypoxic, HT29; assay type: cell-based, human; conditions: for Clonogenic HCR HT29: C10(aerobic)/C10(hypoxic); for Clonogenic C10 HT29 Oxic: concentration to reduce HT29 clonogens to 10% of controls, 4 hr exposure under aerobic conditions
[5] = Hypoxic metabolism with HT29 tumour S9 (HPLC); conditions: 26 at 10 μM with S9, 2 h, HPLC
From the text: Metabolism of compounds of Formula I was investigated using S9 preparations from HT29 tumours grown as xenografts in CD-1 mice.

SMILES	IC50 [1] [µM]	HCR (hypoxic cytotoxicity ratio) HT29 [1]	melting point [°C]	E(1): one-electron reduction potential [2] [mV]	IC50 [3] [µM]	HCR (hypoxic cytotoxicity ratio) SKOV3 [3]	AUC ([4]; intravenous, 42.1 μmol/kg, 35 derived from 36, plasma, mice) [µM·h]	AUC ([4]; iv, 42.1 umol/kg, plasma, CD-1 mice, 36 i.v. 42.1 μmol/kg, 35 as metabolite of 36, mean) [µM·h]	clearance ([4]; iv, 42.1 umol/kg, plasma, CD-1 mice, 36 i.v. 42.1 μmol/kg, 35 as metabolite of 36, mean, read-out: Cl (clearance)) [mL/min/kg]	half-life ([4]; iv, 42.1 umol/kg, plasma, CD-1 mice, 36 i.v. 42.1 μmol/kg, 35 as metabolite of 36, mean, read-out: T1/2 (terminal half-life)) [min]	Vd ([4]; iv, 42.1 umol/kg, plasma, CD-1 mice, 36 i.v. 42.1 μmol/kg, 35 as metabolite of 36, mean, read-out: Vd (volume of distribution based on the terminal phase)) [L/kg]	Clonogenic HCR HT29 (HT29 clonogens)	Clonogenic C10 HT29 Oxic (HT29 clonogens) [µM]	AUC for 90% kill of HT29 cells under hypoxic conditions (HT29 clonogens; estimated from the clonogenic assay data in Table 3) [µM·min]	HCR: Hypoxic cytotoxicity ratio for HT29 cell line ([1]; Table 5, as defined in Table 3)	formation of 60 under hypoxic conditions ([5]; hypoxic)	formation of 60 under oxic conditions ([5]; oxic)
CN(C)CCOc1ccc2[nH]c(C(=O)N3CC(CCl)c4c3cc([N+](=O)[O-])c3cc(S(=O)(=O)NCCO)ccc43)cc2c1 (stereo not drawn) [Compound 35, 1-(Chloromethyl)-3-{5-[2-(dimethylamino)ethoxy]indol-2-carbonyl}-N-(2-hydroxyethyl)-5-nitro-1,2-dihydro-3H-benzo[e]indole-7-sulfonamide]	5.5	90	205 to 210	−392 ± 7	9.2	250	~11.7	11.7	61	43	3.8	74.4	115	371			
CN(C)CCOc1ccc2[nH]c(C(=O)N3CC(CCl)c4c3cc([N+](=O)[O-])c3cc(S(N)(=O)=O)ccc43)cc2c1 (stereo not drawn) [Compound 26, 1-(Chloromethyl)-3-{5-[2-(dimethylamino)ethoxy]indol-2-carbonyl}-5-nitro-1,2-dihydro-3H-benzo[e]indole-7-sulfonamide]	4.6	330		−390 ± 9	6.9	280						>30.9	>42		330	major product of hypoxic metabolism	not detected

From patent US7718688B2, “Nitrobenzindoles and their use in cancer therapy” (Auckland Uniservices Limited, priority 2004, dated 2010)
